For three compounds, Kd results are on record in article doi:10.1101/2024.02.22.581678v1 (biorxiv, 2024).

For orientation: Kd means the free concentration of one partner at which half of the binding sites on the other are occupied at equilibrium, for simple one-to-one binding. A higher Kd goes with lower affinity.

For the assay, the target named is MeAmi_SBP. The assay can be described thus: isothermal analysis of ligand-titrated DSF. The format is binding, Mesorhizobium sp. As to conditions: 50 mM Tris, 300 mM NaCl, pH 7.4; 8.4 μM His6-tagged protein; one-site model.
`NC(=O)[C@@H](N)Cc1ccc(O)cc1` [L-tyrosinamide] yielded a Kd of 0.187 µM.

The compound `C[C@H](N)C(N)=O` [L-alaninamide] gave a Kd of 1.53 µM.

`NCC(N)=O` [glycinamide] displayed a Kd of 49.7 µM.
